Molecular target: T1, FDH1 (Trichoderma reesei, UniProt G0RGU7)
T1 construct: gene TRIREDRAFT_60517; full-length re-annotated 302-aa protein (database gene model may differ; S1 Data); codon-optimized; pET-32a(+), E. coli BL21(DE3); N-terminal His6 tag
Assay: NADH formation at […] nm, initial rates, Hill equation fit
Assay type: biochemical
Settings: NAD+ co-substrate (0.5 mM in standard assay), 50 mM Tris-HCl pH 9.0, 30 °C

T1 sequence (G0RGU7 entry or part of it): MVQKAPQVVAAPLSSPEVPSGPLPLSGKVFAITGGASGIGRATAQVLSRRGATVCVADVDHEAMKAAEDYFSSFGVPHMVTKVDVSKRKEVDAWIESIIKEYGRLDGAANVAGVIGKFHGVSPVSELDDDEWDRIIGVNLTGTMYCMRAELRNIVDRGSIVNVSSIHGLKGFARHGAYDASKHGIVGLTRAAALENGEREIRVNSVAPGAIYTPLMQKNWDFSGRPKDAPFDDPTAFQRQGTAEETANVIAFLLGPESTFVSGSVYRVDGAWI

Km: 546 µM
Structure (SMILES): C[C@@H]1OC(O)[C@@H](O)[C@H](O)[C@@H]1O (stereo partly drawn) [L-fucose, 6-deoxy-L-galactose]
